From EP1672365A1, “Means and methods for determining and/or influencing cellular transportation” (priority 2004, dated 2006)
Entries after “also recorded” stand apart in the source; their conditions may differ.

Tests used:
Bcrp1 [1] = target: T1, Bcrp1 (Mus musculus, UniProt Q7TMS5); assay: Milk secretion of radiolabelled compounds after intravenous administration to lactating wild-type and Bcrp1-/- mice; format: in vivo; set-up: Bcrp1 was detected primarily in the apical membrane of alveolar epithelial cells; from tissue; host or cells: mammary gland of lactating wild-type mice (Bcrp1-/- mice as control); conditions: for milk secretion in Bcrp1-/- compared to wild-type mice: lactating wild-type vs Bcrp1-/- mice; for milk-to-plasma (M/P) ratio: lactating Bcrp1-/- mice; for milk-to-plasma (M/P) ratio / milk secretion in wild-type mice: 1 mg kg-1 intravenously, 30 min; for milk secretion in wild-type mice: lactating wild-type mice
T1 sequence (Q7TMS5 1-657): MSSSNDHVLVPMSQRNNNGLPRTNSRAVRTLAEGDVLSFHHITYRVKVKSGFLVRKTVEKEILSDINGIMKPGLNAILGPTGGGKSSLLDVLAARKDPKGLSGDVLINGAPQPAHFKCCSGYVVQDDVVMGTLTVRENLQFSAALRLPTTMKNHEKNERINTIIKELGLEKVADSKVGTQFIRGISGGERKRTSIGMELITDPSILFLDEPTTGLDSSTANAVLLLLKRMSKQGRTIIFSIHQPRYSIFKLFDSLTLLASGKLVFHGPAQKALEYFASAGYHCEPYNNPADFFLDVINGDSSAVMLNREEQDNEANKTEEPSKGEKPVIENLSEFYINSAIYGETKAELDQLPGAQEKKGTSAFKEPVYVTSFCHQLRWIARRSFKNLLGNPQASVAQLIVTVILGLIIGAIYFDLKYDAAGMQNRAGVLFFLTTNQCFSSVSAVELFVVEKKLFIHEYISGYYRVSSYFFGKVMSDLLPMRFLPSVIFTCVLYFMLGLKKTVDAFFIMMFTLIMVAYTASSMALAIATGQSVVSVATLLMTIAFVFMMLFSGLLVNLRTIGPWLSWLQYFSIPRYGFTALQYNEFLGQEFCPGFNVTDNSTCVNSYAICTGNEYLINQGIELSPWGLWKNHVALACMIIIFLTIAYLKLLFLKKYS
Procedure: (§1) For intravenous drug administration, 5 µl drug solution per g body weight was injected into the tail vein of mice lightly anesthetised with methoxyflurane. Levels of radioactivity in plasma and milk were determined by liquid scintillation counting. Measurements of drug secretion into the milk were done in lactating dams with pups of approximately 10 days old. To stimulate milk secretion, oxytocin (200 µl of an 1 I.U. ml^-1 solution) was administered subcutaneously to lactating dams at 30 min before milk was collected. After intravenous administration of a drug, at the indicated time approximately 50 µl milk was collected from the 4th and 5th mammary glands by gentle vacuum suction. Immediately after milk collection, a small blood sample was collected from the tail.

Bcrp1 [2] = assay: Inhibition of Bcrp1-mediated milk secretion of topotecan by GF120918; format: in vivo; conditions: GF120918 250 mg/kg orally 2 hours before [14C]-topotecan 1 mg/kg i.v., lactating mice
Procedure: GF120918 was suspended at […] in water for injection and concentrated stock vehicle (1:1). The concentrated stock vehicle consisted of hydroxypropyl methyl cellulose (10 g/l) and 2% Tween 80 in water for injection. Animals were administered GF120918 (250 mg/kg; 10 µl of drug solution/g body weight) by gavage into the stomach at 2 hours before [^14C]-topotecan injection. [^14C]-topotecan (1 mg/kg) was injected into the vein of mice lightly anesthetized with methoxyflurane. To stimulate milk secretion, oxytocin (200 µl of 1 I.U./ml solution) was administered subcutaneously to lactating dams at 15 min before each milk sample was collected. At indicated time points (15, 30, 60 and 120 min after [^14C]-topotecan injection), 50 µl of milk was collected from the mammary glands by gentle vacuum suction. […] At the last sampling point, animals were sacrificed by cardiac puncture after anesthesia with methoxyflurane.

Bcrp1 [3] = target: T1, Bcrp1; conditions: in vivo
Procedure: as §1
Samples were protected from light during the whole sample pre-treatment. Methanol (4 times the sample volume) was added to plasma and milk samples to precipitate proteins. […] The flow was 1.0 ml min^-1 and the detection was performed fluorimetrically using a FP920 Intelligent Fluorescence Detector (Jasco International Co. Ltd., Tokyo, Japan) with excitation/emission wavelengths set at 372/520 nm and 40 nm bandwidth. The capacity of the flow-cell of the fluorescence detector was 16 µl. […] Calibration curves were calculated by least-squares linear regression using a weighting factor of the reciprocal of the concentration.

human BCRP = target: T2, human BCRP (Homo sapiens, UniProt Q9UNQ0); assay: Vesicular transport assay (inside-out vesicle uptake, Sf9 membrane vesicles); format: biochemical; conditions: 3H-riboflavin 0.25 µM, vesicles from Sf9 cells with BCRP-expressing or wild-type baculovirus, 4 mM ATP
T2 construct: made in house; host or cells: Sf9 insect cells infected with BCRP-expressing baculovirus (membrane vesicles)
T2 sequence (Q9UNQ0 1-655): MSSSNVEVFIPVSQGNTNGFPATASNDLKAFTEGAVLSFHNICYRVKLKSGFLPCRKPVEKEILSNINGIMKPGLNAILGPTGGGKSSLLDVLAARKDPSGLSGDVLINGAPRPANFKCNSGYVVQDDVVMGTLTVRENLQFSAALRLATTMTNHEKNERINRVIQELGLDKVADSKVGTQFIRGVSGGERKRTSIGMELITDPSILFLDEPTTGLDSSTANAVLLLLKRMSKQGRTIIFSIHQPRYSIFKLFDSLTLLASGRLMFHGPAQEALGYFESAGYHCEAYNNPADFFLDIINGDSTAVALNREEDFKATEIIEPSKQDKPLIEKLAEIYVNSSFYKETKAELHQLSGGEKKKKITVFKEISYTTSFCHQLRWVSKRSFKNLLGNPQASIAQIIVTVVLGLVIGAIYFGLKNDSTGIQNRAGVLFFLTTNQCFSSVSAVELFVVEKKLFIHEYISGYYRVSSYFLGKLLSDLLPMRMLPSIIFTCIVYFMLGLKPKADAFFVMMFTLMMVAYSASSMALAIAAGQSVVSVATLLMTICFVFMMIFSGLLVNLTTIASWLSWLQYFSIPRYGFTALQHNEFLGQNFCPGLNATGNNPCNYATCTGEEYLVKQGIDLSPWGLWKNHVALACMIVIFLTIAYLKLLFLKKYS
Procedure: Vesicular transport assays were performed as described (Ozvegy, C., et al. Functional characterization of the human multidrug transporter, ABCG2, expressed in insect cells. Biochem. Biophys. Res. Commun. 285, 111-117 (2001); Zelcer, N., et al. Evidence for two interacting ligand-binding sites in human MRP2 (ABCC2). J. Biol. Chem. 278, 23538-23544 (2003)), using vesicles from Sf9 cells infected with BCRP-expressing or wild-type baculovirus, in the presence or absence of 4 mM ATP. ATP-dependent transport was calculated by subtracting the uptake in absence of ATP from that in the presence of ATP.

C[C@]12CC[C@H](OS(=O)(=O)O)CC1=CC[C@@H]1[C@@H]2CC[C@]2(C)C(=O)CC[C@@H]12 [DHEAS, dehydroepiandrosterone-sulfate]
milk secretion in Bcrp1-/- compared to wild-type mice (Bcrp1 [1]): not affected

COc1cc2c(cc1OC)CN(CCc1ccc(NC(=O)c3cccc4c(=O)c5cccc(OC)c5[nH]c34)cc1)CC2 [GF120918, N-{4-[2-(1,2,3,4-tetrahydro-6,7-dimethoxy-2-isoquinolinyl)-ethyl]-phenyl}-9,10-dihydro-5-methoxy-9-oxo-4-acridine carboxamide]
effect on active secretion of topotecan into the milk by Bcrp1 (Bcrp1 [2]): effectively reversed; also recorded: capable of at least in part inhibiting transport of topotecan into the milk

Cn1c(N)nc2ncc(-c3ccccc3)cc21 [PhIP, 2-amino-1-methyl-6-phenylimidazo[4,5-b]pyridine]
milk-to-plasma (M/P) ratio (Bcrp1 [1]): <= 1
milk secretion in wild-type mice (Bcrp1 [1]): highly concentrated into the milk

Nc1nc2ncc(CNc3ccc(C(=O)N[C@@H](CCC(=O)O)C(=O)O)cc3)nc2c(=O)[nH]1 [folic acid]
milk secretion in Bcrp1-/- compared to wild-type mice (Bcrp1 [1]): not affected

Cc1cc2nc3c(=O)[nH]c(=O)nc-3n(C[C@H](O)[C@H](O)[C@H](O)CO)c2cc1C [riboflavin]
decrease in the endogenous milk secretion (Bcrp1 [3]): 67 fold
ATP-dependent transport by human BCRP (human BCRP): confirmed ATP-dependent transport

CC[C@@]1(O)C(=O)OCc2c1cc1n(c2=O)Cc2cc3c(CN(C)C)c(O)ccc3nc2-1 [topotecan]
milk-to-plasma (M/P) ratio (Bcrp1 [1]): <= 1
milk secretion in wild-type mice (Bcrp1 [1]): highly concentrated into the milk

vitamin B12
milk secretion in Bcrp1-/- compared to wild-type mice (Bcrp1 [1]): not affected
